Results from patent US12569508B2, “Antimicrobial compositions and methods of use” (priority 2020, dated 2026).

Key:
CFBE41o− = assay type: cell-based, human
Description: Cell viability was assessed through taking the contents of the basolateral compartment media and reacting it with a Cytotoxicity Detection Kit (LDH) (Roche) to determine the amount of LDH released. 200 μL of the basolateral media was taken and centrifuged at 300×g for 10 mins. 100 μL of the supernatant was mixed with 100 μL of the reaction solution, as per manufacturer's instructions. LDH release was measured after 5-minute incubation at room temperature using a plate reader at an absorbance of 492 nm.

P. aeruginosa Xen41 = test: Chronic full-thickness wound infection model: bacterial load; assay type: in vivo, Balb/c mice
Description: Immediately after wounding, group 1 was inoculated with 10^7 CFU of bioluminescent P. aeruginosa strain (Xen41, PerkinElmer, Waltham, MA, USA) in 10 μL of 0.9% saline. All other mice were covered with an adhesive dressing (Opsite Flexigrid, Smith & Nephew, London, UK). All mice were given soaked food and free access to water for the study. Postoperative analgesia (0.05 mg/kg buprenorphine) was provided 10 h and 24 h post-surgery via subcutaneous administration. After inoculation, mice were imaged using IVIS Spectrum Live Animal Imaging System (PerkinElmer, Waltham, MA, USA) and then daily until sacrifice to quantity radiance (photons/s) of the bioluminescent bacteria in the wound and correlate to the infection load, as previously described (Abbott C A et al., 2013, Contributors, in Handbook of Proteolytic Enzymes, N. D. Rawlings and G. Salvesen, Editors. 2013, Academic Press. p. xxxv-xlviii). Using built-in Living Image R software, regions of interest (ROI) were selected surrounding the wound to quantify the total photon emission following established protocols (Haidari, H., et al., 2021, Acta Biomaterialia, 128: 420-434; Kopecki, Z., et al., 2009, Journal of Investigative Dermatology, 129(8): 2031-2045).
After the pilot, it was determined that a 6 mm wound+10^6 CFU P. aeruginosa infection was the appropriate model to proceed with. […]

[1] = aerosolised, CF patients; cited from earlier work
[2] = test system: CFBE41o− infected with PAO1 biofilm; test: Tobramycin transport across CFBE41o− infected with PAO1 biofilm; assay type: in vitro ADME, human; details: peak at 2.5 h after nebulisation
Description: (§1) To assess the activity and toxicity or formulations, the CFBE41o− cell line was seeded on Transwell® inserts (0.05×10^6) at the liquid-liquid interface (500 μL apical and 1500 μL basolateral) on day 0. On day 3, the apical side media was removed, and the basolateral side was replaced with 500 μL of media. On day 7, the transepithelial electrical resistance (TEER) was measured through adding 500 μL to the apical chamber of one well and replacing the basolateral side with 1500 μL. The transferred biofilm model, described above, was employed to transfer the PAO1 biofilm on top of the CFBE41o− cell line in the apical compartment of the Transwells® on day 7. After 1 h incubation, the supernatant was removed as the biofilm has settled onto the cells.
(§2) Using the Aerogen® Pro (vibrating mesh nebuliser) and nebulisation chamber, the treatments were then nebulised on top of the biofilm and CFBE41o− cell layer. […]
(§3) After TOB treatments were nebulised, at 5, 15, 30, 60, 120, 240 and 1440 minutes, 100 μL sample was taken from the basolateral compartment and replaced with fresh MEM media. The sample was then filtered through 4 mm Millex® syringe filters before LC-MS/MS analysis, as described above, to quantify the transport of TOB.

[3] = as above; assay type: in vitro ADME, human; details: human; nebulised; biofilm and epithelium monolayer; read-out: Papp of TOB
Description: as §1, §2, §3

SMILES: NC[C@H]1O[C@H](O[C@H]2[C@H](O)[C@@H](O[C@H]3O[C@H](CO)[C@@H](O)[C@H](N)[C@H]3O)[C@H](N)C[C@@H]2N)[C@H](N)C[C@@H]1O [unformulated TOB, tobramycin]
- epithelium cell monolayer viability (CFBE41o−): maintained the epithelium cell monolayer viability
- cell viability of the epithelium monolayer (CFBE41o−; human, 24 h): above 80%
- change in infection level compared to saline (P. aeruginosa Xen41; after each once-daily dose): no statistical change in the infection level
- P. aeruginosa remaining in excised wounds (P. aeruginosa Xen41; day six, after three doses of 15 μg topical): 5×10^6 CFU
- bioavailability [1]: 9.13%
- TOB reaching the basolateral compartment [2]: 15.8%
- Papp at 1440 min, 3.32 mg/mL [3]: 1.91 ×10⁻⁶ cm/s
